2 compounds from PMC8217011, “Natural brominated phenoxyphenols kill persistent and biofilm-incorporated cells of MRSA and other pathogenic bacteria” (Applied Microbiology and Biotechnology, 2020) can be followed below.

Each structure is given as a SMILES string. Where “and” joins values, the source holds several entries; their conditions need not be identical. Identical values can stand only once.

For assay [1], the system named is Enterobacter cloacae isolate 3678. Description: MIC determination (broth microdilution in LB medium). It counts as cell-based. Here is the method: (§1) The minimal inhibitory concentration (MIC) has been determined according to the CSLI guidelines (CLSI [2012]). Briefly, in a sterile polystyrene U-bottom 96-well plate, a 2-fold serial dilution ranging from 100 to 0.78 μM of testing compounds has been prepared in 50 μL MHB. A freshly inoculated S. aureus culture was grown until OD600 nm of approx. 0.6 and diluted to 10^6 CFU/mL in MHB. Finally, 50 μL of the latter cell suspension was added to each well and then incubated statically for 18–24 h at 37 °C. MIC was determined using BacTiterGlo ATP assay (Promega, Madison, WI, USA) and Tecan Infinite F200 Pro (Tecan, Männedorf, Switzerland). Moxifloxacin and DMSO were used as positive and negative control, respectively. Sublethal concentrations of colistin (0.1 μM) were used in some experiments to increase the permeability of the gram-negative cell envelope for compound testing. For E. cloacae, a broth microdilution assay was performed using a serial 2-fold dilution in 96-well flat-bottomed plates (Falcon, BD Bioscience, Heidelberg) of both PPs in broth LB medium (Roth, Karlsruhe) at a concentration range of 50–0.024 μM.
(Broth dilution looks for growth in wells or tubes with falling amounts of substance.)

The test system of assay [2] is S. aureus mutant M1 (parental strain ATCC 25923). The experiment in a line: MIC of spontaneously resistant mutant. It counts as cell-based, Staphylococcus aureus. Particulars: for MIC90: Staphylococcus aureus, ATCC25923. On the procedure:
as §1
(§2) Spontaneous resistant mutants have been generated with 2-bromo-PP and 3-bromo-PP to further investigate the mechanism of antibacterial action and resistance. Since isolation of spontaneous resistant mutants in one step was not successful on solid media containing 2-bromo-PP or 3-bromo-PP (i.e. resistance frequency < 10^−7 at 5-fold MIC), enrichment was done by passaging bacteria daily in liquid media containing increasing sublethal concentrations of PPs. […] Moreover, we observed cross-resistance between PPs since 2-bromo-PP-resistant mutants were also resistant against 3-bromo-PP and vice versa (Fig. 4a; Table 2).

Assay [3] deals with S. aureus mutant M4 (parental strain Mu50). The experiment in a line: MIC of spontaneously resistant mutant. Particulars: for MIC90: Staphylococcus aureus. It counts as cell-based, Staphylococcus aureus. Here is the method: as §1, §2
The next assay has as its system CLS-54 (CLS 300227). Description: Cytotoxicity assay (Resazurin). It is filed as cell-based. To be noted: Homo sapiens, 48 h, 2 days. On the procedure:
(§3) Human cell lines were grown in their respective growth medium. Cells have been counted using a haemocytometer, and cell density was adjusted to 10^6 cells/mL. A 2-fold serial dilution was prepared in 96-well U-bottom plates, and cells were sown into the wells to a final density of […]. After 2 days at 37 °C and 5% CO2, 10 μL of a 100 μg/mL Resazurin dye solution was added to each well and was incubated for several hours. The reaction was inactivated with 100 μL of a 10% formalin solution per well. Finally, the fluorescence was quantified in a plate reader with 535-nm excision and 590-nm emission wavelengths.

Another assay concerns HEK293 (CLS 300192). The experiment in a line: Cytotoxicity assay (Resazurin). It counts as cell-based. To be noted: Homo sapiens, HEK293, 48 h, 2 days. Here is the method:
as §3
(Resazurin is reduced to fluorescent resorufin, in cell work by metabolically active cells.)

The test system of the next assay is HepG2 (CLS 300198). Description: Cytotoxicity assay (Resazurin). It counts as cell-based. Particulars: Homo sapiens, HepG2, 48 h, 2 days. On the procedure:
as §3

In the next assay the test system is HuH7 (CLS 300156). Description: Cytotoxicity assay (Resazurin). It counts as cell-based. To be noted: Homo sapiens, Huh-7, 48 h, 2 days. Here is the method: as §3
For a further assay, the system named is MRC-5 (ATCC CCL-171). Description: Cytotoxicity assay (Resazurin). It counts as cell-based. Particulars: Homo sapiens, MRC5, 48 h, 2 days. On the procedure: as §3
The next assay deals with THP-1 (ATCC TIB-202). Description: Cytotoxicity assay (Resazurin). It counts as cell-based. Particulars: Homo sapiens, THP-1, 48 h, 2 days. Here is the method: as §3
Assay [4] has as its system preformed biofilms of MRSA Mu50. Description: Antibiofilm activity assay, viability by Resazurin reduction. It is filed as cell-based, Staphylococcus aureus. To be noted: preformed 24 h biofilms. On the procedure:
Sterile flat-bottom 96-well polystyrene plates were used for the assay. Some S. aureus colonies were picked from an MHA plate and resuspend in MHB + 10% glucose, and cell density was adjusted to 10^8 cells per mL. One hundred microlitres of cell suspension was added to each well, and the plate was incubated statically for 24 h to induce growth and maturation of biofilms. After 24 h, the wells were washed three times with PBS to remove planktonic cells, and compounds were added to the wells to check for antibiofilm activity. To check for inhibition of biofilm formation, compounds were added immediately after adding of cells to the wells in sublethal concentrations. Lysostaphin, moxifloxacin and DMSO served as positive and negative controls, respectively.
Viability was measured as described above utilizing the Resazurin reduction assay. Biofilm formation was measured using crystal violet staining as described elsewhere (Christensen et al. [1985]; Stepanovic et al. [2007]). Briefly, biofilms were washed three times with PBS and allowed to air dry before 0.1% (v/v) crystal violet solution (Waldeck GmbH & Co., Münster, Germany) was added to each well. The biofilms were stained for 15 min at room temperature (RT). […] Finally, 100 μL was transferred to a fresh 96-well plate to measure absorption at 600 nm with a plate reader.

Assay [5] concerns stationary phase-induced persistent cells of MRSA strain Mu50. The experiment in a line: Persister killing kinetics (CFU plating). It counts as cell-based, Staphylococcus aureus. To be noted: start 10^8 CFU/mL. Here is the method:
For persister killing kinetics, cells were grown overnight until a density of OD600 nm > 5.0 was reached and then washed three times with PBS. Next, cell density was adjusted to 10^8 CFU/mL in 5 mL PBS. […] Analysis was performed as described above.

The subject of a further assay is pre-formed MRSA biofilms. Description: Biofilm viability by CFU plating. It is filed as cell-based, Staphylococcus aureus. To be noted: 24 h of treatment, 4× minimal biofilm inhibitory concentration, moxifloxacin 20 μM. Here is the method:
Additionally, biofilm viability was quantified by CFU plating. Biofilms were pregrown as described above and treated for 24 h with 4× minimal biofilm inhibitory concentrations as calculated from the Resazurin reduction assay. Biofilms were dispersed by pipetting followed by sonification in a water bath. Dilutions were plated on Mueller-Hinton agar plates and incubated overnight at 37 °C.

In a further assay the test system is A. baumannii ATCC 747. Description: Killing kinetics, replicating cells. It is filed as cell-based. Particulars: 2-bromo-PP 3.125 µM, 3-bromo-PP 6.25 µM; multidrug-resistant Acinetobacter baumannii as worded. Here is the method: 39 Figure S2 – Bactericidal effects of 2-bromo-PP and 3-bromo-PP against replicating
40 cells of A. baumannii ATCC 747. Colistin was used as positive control (3.125 µM). 2-
41 bromo-PP and 3-bromo-PP were used at concentrations of 3.125 µM and 6.25 µM,
42 respectively. The limit of detection was 500 CFU/mL.
(1 picture or pasted object on this page, not shown here)

A further assay has as its system S. aureus. The experiment in a line: Generation of spontaneous resistant mutants. It counts as cell-based, Staphylococcus aureus. Particulars: for fold increased MIC of mutants: after 15 passages in liquid media with increasing sublethal concentrations; for resistance frequency: one-step selection on solid media at 5-fold MIC.
From the text: as §2

A word on the MIC90: it is the lowest concentration that inhibits either 90% of growth or 90% of the strains tested, depending on the study. A word on the IC50: it is the point on the concentration scale where inhibition reaches its midpoint. Low values mean greater potency in that assay, high ones weaker potency in that assay. On to `Oc1c(Br)cc(Br)cc1Oc1ccc(Br)cc1Br` [2-bromo-PP, 4,6-dibromo-2-(2′,4′-dibromophenoxy)phenol], for which the MIC90 is 12.5 µM and 6.27 µg/mL in assay [1]; 1.56 µM and 0.78 µg/mL in assay [2]; 1.56 µM and 0.78 µg/mL in [3]. Further, the half-inhibitory concentration (IC50) in the assay with CLS-54 (CLS 300227) is above 100 µM; in the assay on HEK293 (CLS 300192) it was 12.5 µM; with HepG2 (CLS 300198), 50 µM; with HuH7 (CLS 300156), above 100 µM; in the assay on MRC-5 (ATCC CCL-171) it was above 100 µM; in the assay with THP-1 (ATCC TIB-202) it was 6.25 µM. The “concentration inhibiting viability of cells in biofilms (maximal effect)” value in [4] was determined as 100 µM. Moreover, the “time until viability reduced to the detection limit” value in assay [5] (PPs at 4× MIC, NH125 10 μM, detection limit 10^2 CFU/mL) came to 8 h. In the assay on pre-formed MRSA biofilms, the “reduction in viable cell counts in biofilms” value is given as “ca. 5 order of magnitudes”. Besides, the “bactericidal effect against replicating cells” value with A. baumannii ATCC 747 was “comparable bactericidal effect”. In addition, the “fold increased MIC of mutants” value with S. aureus was found to be 4 fold. Besides, the resistance frequency with S. aureus is < 10^−7.
As to `Oc1c(Br)cc(Br)c(Br)c1Oc1ccc(Br)cc1Br` [3-bromo-PP, 3,4,6-tribromo-2-(2′,4′-dibromophenoxy)phenol], the MIC90 is 12.5 µM and 7.26 µg/mL in [1]; 3.12 µM and 1.81 µg/mL in assay [2]; 3.12 µM and 1.81 µg/mL in [3]. The “MIC shift against 3-bromo-PP” value in assay [2] (mutant M1 raised against 2-bromo-PP, vs parental strain) is recorded as 4 ×; in assay [3] (mutant M4 raised against 3-bromo-PP, vs parental strain Mu50), 32 ×. Also, the half-inhibitory concentration (IC50) with CLS-54 (CLS 300227) is above 100 µM; in the assay with HEK293 (CLS 300192) it was 3.12 µM; in the assay on HepG2 (CLS 300198) it was 25 µM; in the assay on HuH7 (CLS 300156) it was above 100 µM; in the assay on MRC-5 (ATCC CCL-171) it was 100 µM; in the assay with THP-1 (ATCC TIB-202) it was 50 µM. Moreover, in assay [4], the “concentration inhibiting viability of cells in biofilms (maximal effect)” value was 12.5 µM. Further, the “decrease of viability of persistent cells after 24 h” value in assay [5] (3-bromo-PP at 4× MIC, moxifloxacin control, 24 h) stood at 2 logs. For the same compound, in the assay with pre-formed MRSA biofilms, the “reduction in viable cell counts in biofilms” value is on record as “ca. 5 order of magnitudes”. Besides, the “bactericidal effect against replicating cells” value in the assay with A. baumannii ATCC 747 is recorded as “comparable bactericidal effect”. For the same compound, in the assay with S. aureus, the “fold increased MIC of mutants” value turned out to be 32 fold. The resistance frequency with S. aureus is given as < 10^−7.
